Read-outs that look alike come from different tables or passages of the source.

The text below walks through data of patent US7994200B2, “Cycloalkane-substituted pyrazoline derivatives, their preparation and use as medicaments” (Laboratorios del Dr. Esteve, S.A., priority 2005, dated 2011).

Assay [1] has as its target recombinant human cannabinoid 1 receptor (CB1) (Homo sapiens, UniProt P21554). Nature of the assay: [35S]GTPγS binding antagonistic assay against WIN 55,212-2, CHO cell membranes. In kind it is biochemical. Particulars: compound at 1 μM against WIN 55,212-2; 100% = effect of internal standard CB1-antagonist. As to the method:
The percentage of catalepsy is determined according of the following formula: % Catalepsy=arithmetic mean/6×100 Antagonistic Assay: Materials and Methods. Membrane Preparation:
Chinese hamster ovary (CHO) cells stably expressing recombinant human cannabinoid 1 receptor (CB1) were cultured in nutrient mixture Ham's F 12 supplemented with 10% heat-inactivated fetal bovine serum, 2 mM L-glutamine, 50 U/ml penicillin, 50 U/ml streptomycin and 0.5 mg/ml geneticin. In order to obtain cells, culture flasks were washed twice with phosphate buffered saline and scraped. Then, cells were collected by centrifugation (200×g, 10 min) and stored dry at −80° C. Cells were homogenized in ice-cold 20 mM HEPES, 10 mM EDTA (pH 7.5) and centrifuged at 40,000×g for 15 min at 4° C. The pellet was resuspended in 20 mM HEPES, 0.1 mM EDTA (pH 7.5) and centrifuged for 15 min at 4° C. The final pellet was resuspended in 20 mM HEPES, 0.1 mM EDTA (pH 7.5), and divided in aliquots and stored at −80° C. until use.
[^35S]GTPγS Binding Assay:
The reaction was performed in 96-well plates. […] The incubation was terminated by rapid filtration through Millipore Multiscreen glass fiber FB, and rinsed two-times with ice-cold assay buffer. Filter plates were dried and 30 μl of scintillation liquid was added. Radioactivity was determined using Wallac Microbeta Trilux. Each experiment was performed at least in duplicate.
The average of basal [^35S]GTPγS binding was subtracted from all binding data.
(In general: GTPγS is a poorly hydrolysed GTP analogue; its binding reports G protein activation.)

For a further assay, the target named is T1, CB1-Receptor (Homo sapiens, UniProt P21554).
T1 construct: purchased Receptor Biology, Inc
T1 sequence (P21554 whole entry): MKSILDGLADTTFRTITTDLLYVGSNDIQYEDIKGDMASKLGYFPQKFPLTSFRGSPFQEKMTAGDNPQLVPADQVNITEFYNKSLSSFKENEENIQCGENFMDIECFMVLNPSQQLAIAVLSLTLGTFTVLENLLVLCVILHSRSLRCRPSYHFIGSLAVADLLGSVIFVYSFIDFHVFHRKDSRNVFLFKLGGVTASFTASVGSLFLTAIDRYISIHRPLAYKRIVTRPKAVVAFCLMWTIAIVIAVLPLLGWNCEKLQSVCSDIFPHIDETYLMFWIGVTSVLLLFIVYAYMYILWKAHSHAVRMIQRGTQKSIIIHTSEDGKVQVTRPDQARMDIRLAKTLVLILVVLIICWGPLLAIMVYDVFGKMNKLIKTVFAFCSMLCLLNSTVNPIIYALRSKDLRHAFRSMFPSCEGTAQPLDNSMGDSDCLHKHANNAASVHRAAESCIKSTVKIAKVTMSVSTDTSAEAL
The experiment in a line: In-vitro determination of affinity to CB1/CB2-Receptors, radioligand [3H]-CP55940. In kind it is binding. As to the method: Pharmacological Data: Pharmacological Methods I. In-vitro determination of affinity to CB1/CB2-Receptors
The in-vitro determination of the affinity of the inventive quaternary ammonium salts of substituted pyrazoline compounds to CB1/CB2-Receptors is carried out as described in the publication of Ruth A. Ross, Heather C. Brockie et al., “Agonist-inverse agonist characterization at CB1 and CB2 cannabinoid receptors of L-759633, L759656 and AM630”, British Journal of Pharmacology, 126, 665-672, (1999), whereby the transfected human CB1 and CB2 receptors of Receptor Biology, Inc. are used. The radioligand used for both receptors is [^3H]-CP55940. The respective parts of the description are hereby incorporated by reference and forms part of the present disclosure.
The affinity of the inventive substituted pyrazoline compounds to CB1/CB2 receptors was determined as described above.

The nature of assay [2]: In vivo testing for antiobesic activity, acute treatment. Particulars: rats, acute oral administration. As to the method: III. In Vivo Testing for Antiobesic Activity a) Accute-Treatment
Normally handled rats were habituated to a reversed cycle 12/12 h, and the compound as well as saline was acutely orally administered. After administration the cumulated food intake (g) was measured at 6 h and 23 h. Following that the difference in body weight between control and compound treated animals was measured.

[3] abbreviates: transfected human receptors, [3H]-CP55940, read-out: IC50.

Chain of recombinant human cannabinoid 1 receptor (CB1) (P21554 whole entry): as above

A word on the IC50: it is the concentration that inhibits the measured activity by half. As to `C[C@H]1C(C(=O)NC2CCCCCC2)=NN(c2ccc(Cl)cc2Cl)[C@H]1c1ccc(Cl)cc1` (relative stereo) [Example 1, cis-5-(4-chlorophenyl)-N-cycloheptyl-1-(2,4-dichlorophenyl)-4-methyl-4,5-dihydro-1H-pyrazole-3-carboxamide], the “Antagonism (%)” value in assay [1] turned out to be 79 ± 18%. On CB1-Receptor (setting [3]), the IC50 worked out at 31.9 nM.
The like results for `C[C@H]1C(C(=O)NC2CCCCCC2)=NN(c2ccc(Cl)cc2Cl)[C@H]1c1ccc(Br)cc1` (relative stereo) [Example 5, cis-5-(4-bromophenyl)-N-cycloheptyl-1-(2,4-dichlorophenyl)-4-methyl-4,5-dihydro-1H-pyrazole-3-carboxamide] were, in that order, 58.1% and 30 nM.
Turning to `C[C@H]1C(C(=O)NC2CCCCCC2)=NN(c2ccc(Cl)cc2Cl)[C@H]1c1ccc(F)cc1` (relative stereo) [Example 7, cis-N-cycloheptyl-1-(2,4-dichlorophenyl)-5-(4-fluorophenyl)-4-methyl-4,5-dihydro-1H-pyrazole-3-carboxamide], the “Antagonism (%)” value in assay [1] is 83 ± 0%. Further, the IC50 at CB1-Receptor (setting [3]) is 112 nM.
Regarding `COc1ccc([C@H]2[C@@H](C)C(C(=O)NC3CCCCCC3)=NN2c2ccc(Cl)cc2Cl)cc1` (relative stereo) [Example 11, cis-N-cycloheptyl-1-(2,4-dichlorophenyl)-5-(4-methoxyphenyl)-4-methyl-4,5-dihydro-1H-pyrazole-3-carboxamide], the “Antagonism (%)” value in assay [1] worked out at 78 ± 8%. Besides, the IC50 on CB1-Receptor came to 66 nM.
For `C[C@H]1C(C(=O)N[C@@H]2CCCC[C@H]2O)=NN(c2ccc(Cl)cc2Cl)[C@H]1c1ccc(Cl)cc1` [Example 15, (4R,5R)-5-(4-chlorophenyl)-1-(2,4-dichlorophenyl)-N-((1R,2R)-2-hydroxycyclohexyl)-4-methyl-4,5-dihydro-1H-pyrazole-3-carboxamide], in assay [2], the “activity reducing body weight” value is recorded as “good activity”.
In the case of `C[C@H]1C(C(=O)N[C@H]2CCCC[C@@H]2O)=NN(c2ccc(Cl)cc2Cl)[C@H]1c1ccc(Cl)cc1` [Example 17, (4R,5R)-5-(4-chlorophenyl)-1-(2,4-dichlorophenyl)-N-((1S,2S)-2-hydroxycyclohexyl)-4-methyl-4,5-dihydro-1H-pyrazole-3-carboxamide], the “Antagonism (%)” value in assay [1] is reported as 13%.
As for `C[C@@H]1C(C(=O)N[C@H]2CCCC[C@@H]2O)=NN(c2ccc(Cl)cc2Cl)[C@@H]1c1ccc(Cl)cc1` [Example 18, (4S,5S)-5-(4-chlorophenyl)-1-(2,4-dichlorophenyl)-N-((1S,2S)-2-hydroxycyclohexyl)-4-methyl-4,5-dihydro-1H-pyrazole-3-carboxamide], in assay [1], the “Antagonism (%)” value is on record as 93 ± 8%. The IC50 at CB1-Receptor (setting [3]) worked out at 69 nM. Further, in assay [2], the “activity reducing body weight” value is reported as “good activity”.
As for `COc1ccc([C@H]2[C@@H](C)C(C(=O)N[C@H]3CCCC[C@@H]3O)=NN2c2ccc(Cl)cc2Cl)cc1` [Example 29, (4R,5R)-5-(4-methoxyphenyl)-1-(2,4-dichlorophenyl)-N-((1S,2S)-2-hydroxycyclohexyl)-4-methyl-4,5-dihydro-1H-pyrazole-3-carboxamide], the “Antagonism (%)” value in assay [1] is reported as 37%.
On to `COc1ccc([C@@H]2[C@H](C)C(C(=O)N[C@H]3CCCC[C@@H]3O)=NN2c2ccc(Cl)cc2Cl)cc1` [Example 30, (4S,5S)-5-(4-methoxyphenyl)-1-(2,4-dichlorophenyl)-N-((1S,2S)-2-hydroxycyclohexyl)-4-methyl-4,5-dihydro-1H-pyrazole-3-carboxamide], for which, in assay [1], the “Antagonism (%)” value was 85%.
